According to patent US7012128B2, “Interaction between cyclin D1 and steroid receptor co-activators and uses thereof in assays” (TopoTarget UK Limited, priority 1998, dated 2006):

Tests used:
[1] = test system: MCF-7 breast cancer cells; experiment: Cell cycle profiles by FACS after transient transfection; type: cell-based; conditions: transient transfection of MCF-7
Description: Cell cycle profiles were analysed using fluuorescence activated cell sorting (FACS)(Allen, 1990; Baldetorp et al, 1998).

[2] = test system: SRC family proteins (SRC-1, AIB-1); experiment: Co-immunoprecipitation with HA-tagged coactivators from COS-7 cells; type: binding; conditions: absence of 17β-estradiol
Excerpt: (§1) COS-7 cells were cotransfected with HA-tagged constructs encoding the nuclear receptor coactivators SRC-1, AIB-1 or p300 (Anzick et al., 1997; Chakravarti et al., 1996; Hanstein et al., 1996; Kamei et al., 1996; Onate et al., 1995) together with control plasmid, plasmids directing the synthesis of wild type cyclin D1 or D1 L254/255A mutant (D1-LALA). 12CA5 HA antibodies were used for immunoprecipitation of whole cell extracts prepared from these cells and co-immunoprecipitation of cyclin D1 (mutants) was examined by Western blot analysis using anti-cyclin D1 antibody. […] Precipitation with the anti-cyclin D1 antibody from the total lysate of the cells transfected with cyclin D1 and cyclin D1-LALA was similar. Binding of cyclin D1 and cyclin D1 L254/255A mutant to ER was then investigated. COS-7 cells were transfected with ER expression vector, cyclin D1 (mutant) and/or control plasmids. […] Differentially phosphorylated species of pRb were detected by Western blotting using the polyclonal pRb antibody (C15, Santa Cruz).
(§2) Cells were lysed in ELB containing 250 mM NaCl, 0.1% NP-40, 50 mM HEPES pH 7.0, 5 mM EDTA and protease inhibitors. […] After blocking with PBS containing 5% milk and 0.1% Tween-20, proteins were detected with monoclonal antibodies directed against cyclin D1 (DCS-6, Neomarkers) and peroxidase-conjugated goat anti-mouse IgG. […]

[3] = test system: pRb; experiment: Phosphorylation of pRb in Rb-/- 3T3 cells; type: cell-based; conditions: cells that lack cyclin D1-associated kinase activity, low serum
Excerpt: as §1, with “plasmids. Monoclonal ER antibodies were used for immunoprecipitation of ER of whole cell extracts prepared from these cells and co-immunoprecipitation of cyclin D1 (mutant) was examined by Western blot analysis using monoclonal cyclin D1 antibodies. […] The activity of cyclin D1 and D1 L254/255A mutant in phosphorylation of pRb in Rb^−/− 3T3 cells was also investigated.” for “plasmids.”

[4] = target: T1, ER (Homo sapiens, UniProt P03372); experiment: Co-immunoprecipitation with ER from COS-7 cells; type: binding; parameters: expressed in transfected cells; host or cells: COS-7
T1 sequence (P03372 1-595): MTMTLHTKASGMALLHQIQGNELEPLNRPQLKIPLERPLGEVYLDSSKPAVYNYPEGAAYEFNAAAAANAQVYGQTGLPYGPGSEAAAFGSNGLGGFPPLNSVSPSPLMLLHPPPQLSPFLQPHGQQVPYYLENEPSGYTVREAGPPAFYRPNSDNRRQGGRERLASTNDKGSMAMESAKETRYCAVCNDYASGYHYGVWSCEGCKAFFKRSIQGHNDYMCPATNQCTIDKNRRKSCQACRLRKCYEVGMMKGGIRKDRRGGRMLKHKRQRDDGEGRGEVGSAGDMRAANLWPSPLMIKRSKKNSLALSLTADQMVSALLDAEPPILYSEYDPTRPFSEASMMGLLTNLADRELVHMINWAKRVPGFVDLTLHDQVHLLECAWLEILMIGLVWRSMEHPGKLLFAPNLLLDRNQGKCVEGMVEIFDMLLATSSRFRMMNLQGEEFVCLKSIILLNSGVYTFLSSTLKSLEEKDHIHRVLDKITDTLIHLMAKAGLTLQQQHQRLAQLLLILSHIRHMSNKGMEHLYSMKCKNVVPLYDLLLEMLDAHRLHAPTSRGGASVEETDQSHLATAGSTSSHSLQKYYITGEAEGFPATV
Excerpt: as §1, §2

[5] = target: T1, ER; experiment: ER activation, ERE-reporter gene, in T47D cells; type: cell-based; parameters: T47D and MCF-7, which contain endogenous wild type ER; endogenous in cells; host or cells: MCF-7; T47D; conditions: relative low levels of cyclin D1, 17β-estradiol enriched medium
Excerpt: The ER-containing T47D and MCF-7 breast cancer cells were maintained in 17β-estradiol enriched medium with 10%fetal calf serum after cotransfection with a cyclin D1 L254/255A mutant expression vector and an ERE-reporter gene for testing its effect on ER activation (left panel). ER transactivation in the absence of co-expression of the cyclin D1 mutant was set at 100%.
To get more insight in the role of cyclin D1 in ER transactivation in breast cancers with elevated levels of cyclin D1, we have tested the effect of the mutant cyclin D1 L254/255A on ER activation in two different breast cancer cell lines. This cyclin D1 mutant does bind to ER, but fails both to interact with SRC-1 as shown above and consequently fails to activate ER (FIG. 1B). Therefore, this mutant can act as a dominant negative in cyclin D1-mediated ER transactivation as it binds to ER and fails to recruit coactivators. We tested the effect of this cyclin D1 mutant on ER activation in two breast cancer cell lines, T47D and MCF-7, which contain endogenous wild type ER, but differ in their cyclin D1 protein levels (FIG. 6). […] In contrast, in MCF-7, which contain relative high levels of cyclin D1 (FIG. 6), the cyclin D1 mutant inhibited up to 50% of ER activity. Thus, this dominant negative cyclin D1 mutant preferentially interferes with ER activation in breast cancer cells that have high levels of cyclin D1 protein.

In the case of “Cyclin D1-LALA: cyclin D1 mutant in which leucines 254 and 255 were mutated to alanines; dominant negative”, the “effect on cell cycle” value [1] was “arrest in the cell cycle at the G1/S checkpoint”, the “Phase of cell cycle G0/G1” value ([1]; FACS) was 81.9% and the “Phase of cell cycle G2/M” value ([1]; FACS) was 7.9%. The “Phase of cell cycle S” value ([1]; FACS) was 10.2%, the “interaction with SRC family proteins” value [2] was “did not interact” and the “ability to phosphorylate pRb” value [3] was “unaffected”. For the same substance, the “ability to bind ER” value [4] was “unaffected” and the “inhibition of ER activity” value [5] was “slight inhibition”.
